In US20260184663A1, “INDENE COMPOUNDS, PHARMACEUTICAL COMPOSITIONS THEREOF, AND THEIR THERAPEUTIC APPLICATIONS” (NucMito Pharmaceuticals co. Ltd., priority 2022, published 2026):

Columns and labels:
Assay type in all cases: cell-based
[1] = system: A549 (lung adenocarcinoma); assay: Antiproliferative activity (CCK-8 cell viability), A549; settings: Homo sapiens, 72 h, read-out: Antiproliferative activity in cancerous cells, A549 (inhibition of cell growth); for inhibition at 3.3 µM: Compound concentration: 3.3 μM; for inhibition at 10 µM: Compound concentration: 10 μM; for inhibition at 30 µM: Compound concentration: 30 μM
Procedure, shortened: (§1)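 Cells grown in DMEM (HepG2, SW480), MEM (HeLa) or F-12K (A549), each with 10% FBS, then exposed to compound at 3.3, 10 or 30 μM for 72 h at 37 °C. CCK-8 absorbance at 450 nm; viability expressed as percent of DMSO-treated cells, graded as growth inhibition bands.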

HeLa (cervical cancer) = assay: Antiproliferative activity (CCK-8 cell viability), HeLa; settings: Homo sapiens, 72 h, read-out: Antiproliferative activity in cancerous cells, HELA (inhibition of cell growth); for inhibition at 3.3 µM: Compound concentration: 3.3 μM; for inhibition at 10 µM: Compound concentration: 10 μM; for inhibition at 30 µM: Compound concentration: 30 μM
Procedure, shortened: as §1

SW480 (colon cancer) = assay: Antiproliferative activity (CCK-8 cell viability), SW480; settings: Homo sapiens, 72 h, read-out: Antiproliferative activity in cancerous cells, SW480 (inhibition of cell growth); for inhibition at 3.3 µM: Compound concentration: 3.3 μM; for inhibition at 10 µM: Compound concentration: 10 μM; for inhibition at 30 µM: Compound concentration: 30 μM
Procedure, shortened: as §1

[2] = system: B16F10 (malignant melanoma); assay: Antiproliferative activity (CCK-8 cell viability), B16F10; settings: Mus musculus, 72 h, read-out: Antiproliferative activity in cancerous cells, B16F10 (inhibition of cell growth); for inhibition at 3.3 µM: B16-F10, Compound concentration: 3.3 μM; for inhibition at 10 µM: B16-F10, Compound concentration: 10 μM; for inhibition at 30 µM: B16-F10, Compound concentration: 30 μM
Procedure, shortened: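 B16F10 melanoma cells grown in DMEM with 10% FBS were plated in 96-well plates at 2,000-5,000 cells/well. After attachment they were exposed to compound in medium for 72 h at 37° C. CCK-8 solution (10 μL) was then added, and after 4 h at 37° C absorbance was read at 450 nm.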

[3] = system: A431 (epidermoid carcinoma); assay: Antiproliferative activity (CCK-8 cell viability), A431; settings: Homo sapiens, 72 h, read-out: Antiproliferative activity in cancerous cells, A431 (inhibition of cell growth); for inhibition at 3.3 µM: A-431, Compound concentration: 3.3 μM; for inhibition at 10 µM: A-431, Compound concentration: 10 μM; for inhibition at 30 µM: A-431, Compound concentration: 30 μM
Procedure, shortened: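 A431 epidermoid carcinoma cells grown in DMEM with 10% FBS were plated at 2,000-5,000 cells/well in 96-well plates. After attachment they were exposed to compound at 3.3 μM, 10 μM, or 30 μM for 72 h at 37° C. Viability was then assessed by CCK-8 against DMSO vehicle-treated wells.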

[4] = system: MDA-MB-231 (breast cancer); assay: Antiproliferative activity (CCK-8 cell viability), MDA-MB-231; settings: Homo sapiens, 72 h, read-out: Antiproliferative activity in cancerous cells, MDA-MB-231 (inhibition of cell growth); for inhibition at 3.3 µM: Compound concentration: 3.3 μM; for inhibition at 10 µM: Compound concentration: 10 μM; for inhibition at 30 µM: Compound concentration: 30 μM
Procedure, shortened: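 MDA-MB-231 breast cancer cells, grown in DMEM with 10% FBS, were plated in 96-well plates at 2,000-5,000 cells/well. Once attached, they were exposed to compound and incubated at 37° C. for 72 h. Viability was then measured with CCK-8 (10 μL per well, 4 h at 37° C.) by absorbance at 450 nm, relative to DMSO vehicle wells.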

HepG2 (liver cancer) = assay: Antiproliferative activity (CCK-8 cell viability), HepG2; settings: Homo sapiens, 72 h, read-out: Antiproliferative activity in cancerous cells, HepG2 (inhibition of cell growth); for inhibition at 3.3 µM: Compound concentration: 3.3 μM; for inhibition at 10 µM: Compound concentration: 10 μM; for inhibition at 30 µM: Compound concentration: 30 μM
Procedure, shortened: as §1

Row | Structure (SMILES) | inhibition at 3.3 µM [1] [%] | inhibition at 10 µM [1] [%] | inhibition at 30 µM [1] [%] | inhibition at 3.3 µM (HeLa (cervical cancer)) [%] | inhibition at 10 µM (HeLa (cervical cancer)) [%] | inhibition at 30 µM (HeLa (cervical cancer)) [%] | inhibition at 3.3 µM (SW480 (colon cancer)) [%] | inhibition at 10 µM (SW480 (colon cancer)) [%] | inhibition at 30 µM (SW480 (colon cancer)) [%] | inhibition at 3.3 µM [2] [%] | inhibition at 10 µM [2] [%] | inhibition at 30 µM [2] [%] | inhibition at 3.3 µM [3] [%] | inhibition at 10 µM [3] [%] | inhibition at 30 µM [3] [%] | inhibition at 3.3 µM [4] [%] | inhibition at 10 µM [4] [%] | inhibition at 30 µM [4] [%] | inhibition at 3.3 µM (HepG2 (liver cancer)) [%] | inhibition at 10 µM (HepG2 (liver cancer)) [%] | also measured
1 | CC1=C(CC(=O)O)c2cc(F)c(F)cc2/C1=C/c1ccc(Oc2ccc(F)cc2)cc1 [E23, (E)-2-(5,6-Difluoro-1-(4-(4-fluorophenoxy)benzylidene)-2-methyl-1H-inden-3-yl)acetic acid] | < 30 | < 30 | ≥ 50 | 30 to 50 | ≥ 50 | ≥ 50 | < 30 | ≥ 50 | ≥ 50 | < 30 | ≥ 50 | ≥ 50 | 30 to 50 | ≥ 50 | ≥ 50 | ≥ 50 | ≥ 50 | ≥ 50 | < 30 | < 30 | inhibition at 30 µM (HepG2 (liver cancer)): ≥ 50%
2 | CC1=C(CC(=O)O)c2cc(F)ccc2/C1=C/c1ccc(Oc2ccc(Cl)cc2F)cc1 [E24, (E)-2-(1-(4-(4-Chloro-2-Fluorophenoxy)benzylidene)-5-fluoro-2-methyl-1H-inden-3-yl)acetic acid] | < 30 | 30 to 50 | ≥ 50 | < 30 | ≥ 50 | ≥ 50 | < 30 | ≥ 50 | ≥ 50 | ≥ 50 | ≥ 50 | ≥ 50 | ≥ 50 | ≥ 50 | ≥ 50 | ≥ 50 | ≥ 50 | ≥ 50 | < 30 | ≥ 50 | inhibition at 30 µM (HepG2 (liver cancer)): ≥ 50%
3 | CC1=C(CC(=O)O)c2cc(F)ccc2/C1=C/c1ccc(Oc2ccc(F)cc2Cl)cc1 [E25, (E)-2-(1-(4-(2-Chloro-4-fluorophenoxy)benzylidene)-5-fluoro-2-methyl-1H-inden-3-yl)acetic acid] | < 30 | < 30 | ≥ 50 | 30 to 50 | ≥ 50 | ≥ 50 | ≥ 50 | ≥ 50 | ≥ 50 | 30 to 50 | 30 to 50 | ≥ 50 | ≥ 50 | ≥ 50 | ≥ 50 | < 30 | < 30 | ≥ 50 | < 30 | ≥ 50 | inhibition at 30 µM (HepG2 (liver cancer)): ≥ 50%
4 | CC1=C(CC(=O)O)c2cc(F)ccc2/C1=C/c1cccc(Oc2cccc(Cl)c2)c1 [E26, (E)-2-(1-(3-(3-Chlorophenoxy)benzylidene)-5-fluoro-2-methyl-1H-inden-3-yl)acetic acid] | < 30 | < 30 | ≥ 50 | < 30 | ≥ 50 | ≥ 50 | < 30 | < 30 | ≥ 50 | < 30 | < 30 | ≥ 50 | < 30 | ≥ 50 | ≥ 50 | < 30 | < 30 | ≥ 50 | < 30 | ≥ 50 | inhibition at 30 µM (HepG2 (liver cancer)): ≥ 50%
5 | CC1=C(CC(=O)O)c2cc(Br)ccc2/C1=C/c1ccc(Oc2ccc(Cl)cc2)cc1 [E27, (E)-2-(5-Bromo-1-(4-(4-chlorophenoxy)benzylidene)-2-methyl-1H-inden-3-yl)acetic acid] | < 30 | ≥ 50 | ≥ 50 | ≥ 50 | ≥ 50 | ≥ 50 | < 30 | 30 to 50 | ≥ 50 | ≥ 50 | ≥ 50 | ≥ 50 | ≥ 50 | ≥ 50 | ≥ 50 | ≥ 50 | ≥ 50 | ≥ 50 | < 30 | ≥ 50 | inhibition at 30 µM (HepG2 (liver cancer)): ≥ 50%
6 | CC1=C(CC(=O)O)c2cc(Cl)c(Cl)cc2/C1=C/c1ccc(Oc2ccc(F)cc2)cc1 [E28, (E)-2-(5,6-Dichloro-1-(4-(4-fluorophenoxy)benzylidene)-2-methyl-1H-inden-3-yl)acetic acid] | ≥ 50 | ≥ 50 | ≥ 50 | ≥ 50 | ≥ 50 | ≥ 50 | < 30 | ≥ 50 | ≥ 50 | ≥ 50 | ≥ 50 | ≥ 50 | 30 to 50 | ≥ 50 | ≥ 50 | ≥ 50 | ≥ 50 | ≥ 50 | ≥ 50 | ≥ 50 | inhibition at 30 µM (HepG2 (liver cancer)): ≥ 50%
7 | CC1=C(CC(=O)O)c2cc(Cl)ccc2/C1=C/c1ccc(Oc2ccc(F)c(F)c2)cc1 [E29, (E)-2-(5-Chloro-1-(4-(3,4-difluorophenoxy)benzylidene)-2-methyl-1H-inden-3-yl)acetic acid] | < 30 | ≥ 50 | ≥ 50 | ≥ 50 | ≥ 50 | ≥ 50 | < 30 | ≥ 50 | ≥ 50 | ≥ 50 | ≥ 50 | ≥ 50 | < 30 | 30 to 50 | ≥ 50 | ≥ 50 | ≥ 50 | ≥ 50 | < 30 | ≥ 50 | inhibition at 30 µM (HepG2 (liver cancer)): ≥ 50%
